Earlier results on 1 compound are cited in patent US20100273825A1, “SOLID PHARMACEUTICAL COMPOSITION CONTAINING SOLIFENACIN AMORPHOUS FORM” (ASTELLAS PHARMA INC., priority 2009, published 2010).

The target in the series is M3 receptors (Homo sapiens, UniProt P20309). Conditions: M3 in smooth muscles, gland tissues; M2 in the heart.

Molecules are shown by their SMILES.

Chain of M3 receptors (P20309 whole entry): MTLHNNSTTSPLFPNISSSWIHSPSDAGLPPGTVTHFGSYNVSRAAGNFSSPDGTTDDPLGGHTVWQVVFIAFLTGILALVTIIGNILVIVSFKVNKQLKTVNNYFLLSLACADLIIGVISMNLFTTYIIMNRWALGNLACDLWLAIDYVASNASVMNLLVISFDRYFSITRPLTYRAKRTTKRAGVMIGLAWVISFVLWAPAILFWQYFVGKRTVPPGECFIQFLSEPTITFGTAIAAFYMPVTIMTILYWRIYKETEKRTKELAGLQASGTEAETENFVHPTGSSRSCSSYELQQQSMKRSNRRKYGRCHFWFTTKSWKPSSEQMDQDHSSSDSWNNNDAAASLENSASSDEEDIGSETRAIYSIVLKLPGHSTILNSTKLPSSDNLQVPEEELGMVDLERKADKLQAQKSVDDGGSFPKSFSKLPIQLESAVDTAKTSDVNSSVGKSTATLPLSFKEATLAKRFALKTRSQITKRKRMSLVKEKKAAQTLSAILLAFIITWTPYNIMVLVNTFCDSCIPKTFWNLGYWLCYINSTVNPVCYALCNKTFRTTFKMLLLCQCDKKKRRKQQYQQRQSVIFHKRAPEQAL

As for `O=C(O[C@H]1CN2CCC1CC2)N1CCc2ccccc2[C@@H]1c1ccccc1` [solifenacin, (R)-quinuclidin-3-yl (S)-1-phenyl-1,2,3,4-tetrahydroisoquinoline-2-carboxylate], the “Selectivity for M3 receptors in comparison with M2 receptors” value is recorded as “high selectivity”.
